Experimental data from PubChem BioAssay AID1259407 (Chemical Carcinogenesis Research Information System (CCRIS), 2018).
Calls of active or inactive are those of the source. How the calls were made is not given here.

Test system: CCRIS mutagenicity, Ames/micronucleus/aberration tests
Experiment: CCRIS mutagenicity studies
[1] = Test System: AMES SALMONELLA TYPHIMURIUM, Strain/Indicator: TA98, Metabolic Activation: S-9, Method: STANDARD PLATE
[2] = Test System: AMES SALMONELLA TYPHIMURIUM, Strain/Indicator: TA100, Metabolic Activation: S-9, Method: STANDARD PLATE
[3] = Test System: AMES SALMONELLA TYPHIMURIUM, Strain/Indicator: TA100, Metabolic Activation: NONE, Method: STANDARD PLATE
[4] = Test System: AMES SALMONELLA TYPHIMURIUM, Strain/Indicator: TA98, Metabolic Activation: NONE, Method: STANDARD PLATE

Compound: CN1CCc2cc3c(c4c2[C@H]1Cc1ccccc1-4)OCO3
- mutagenic call (Test System: AMES SALMONELLA TYPHIMURIUM, Strain/Indicator: TA98, Metabolic Activation: RAT, LIVER, S-9, PHENOBARBITAL AND BETA-NAPHTHOFLAVONE, Method: PREINCUBATION): active; positive
- mutagenic call (Test System: AMES SALMONELLA TYPHIMURIUM, Strain/Indicator: TA100, Metabolic Activation: RAT, LIVER, S-9, PHENOBARBITAL AND BETA-NAPHTHOFLAVONE, Method: PREINCUBATION): active; positive

Compound: Nc1cccc2ncccc12
- mutagenic call (Test System: AMES SALMONELLA TYPHIMURIUM, Strain/Indicator: TA98, Metabolic Activation: NONE, Method: PREINCUBATION): inactive; negative
- mutagenic call (Test System: AMES SALMONELLA TYPHIMURIUM, Strain/Indicator: TA98, Metabolic Activation: RAT, LIVER, S-9, KANECHLOR 500 OR PHENOBARBITAL AND BETA-NAPHTHOFLAVONE, Method: PREINCUBATION): active; positive
- mutagenic call (Test System: AMES SALMONELLA TYPHIMURIUM, Strain/Indicator: TA100, Metabolic Activation: NONE, Method: PREINCUBATION): inactive; negative
- mutagenic call (Test System: AMES SALMONELLA TYPHIMURIUM, Strain/Indicator: TA100, Metabolic Activation: RAT, LIVER, S-9, KANECHLOR 500 OR PHENOBARBITAL AND BETA-NAPHTHOFLAVONE, Method: PREINCUBATION): active; positive
- mutagenic call (Test System: AMES SALMONELLA TYPHIMURIUM, Strain/Indicator: TA100, Metabolic Activation: RAT, LIVER, S-9, PHENOBARBITAL AND 5,6-BENZOFLAVONE, Method: PREINCUBATION): active; positive

Compound: Nc1ccc(Oc2ccc(Cl)cc2Cl)cc1
- mutagenic call [1]: active; positive
- mutagenic call [2]: active; positive
- mutagenic call (Test System: AMES SALMONELLA TYPHIMURIUM, Strain/Indicator: YG1021, Metabolic Activation: S-9, Method: STANDARD PLATE): active; positive
- mutagenic call (Test System: AMES SALMONELLA TYPHIMURIUM, Strain/Indicator: YG1024, Metabolic Activation: S-9, Method: STANDARD PLATE): active; positive
- mutagenic call (Test System: AMES SALMONELLA TYPHIMURIUM, Strain/Indicator: YG1026, Metabolic Activation: S-9, Method: STANDARD PLATE): active; positive
- mutagenic call (Test System: AMES SALMONELLA TYPHIMURIUM, Strain/Indicator: YG1029, Metabolic Activation: S-9, Method: STANDARD PLATE): active; positive

Compound: c1cc2c3c(c1)ccc1cccc(c13)C1OC21 (stereo not given)
- mutagenic call (Test System: CHINESE HAMSTER OVARY, Strain/Indicator: CHO (HGPRT)/6-THIOGUANINE, Metabolic Activation: NONE, Method: STANDARD PLATE): active; positive
- mutagenic call (Test System: CHINESE HAMSTER OVARY, Strain/Indicator: CHO (HGPRT)/6-THIOGUANINE, Metabolic Activation: RAT, LIVER, S-9, AROCLOR 1254, Method: STANDARD PLATE): inactive; negative
- mutagenic call (Test System: UDS RODENT HEPATOCYTES, Strain/Indicator: THY INCORP, Metabolic Activation: NONE, Method: AUTORADIOGRAPHY): active; positive

Compound: NNC(=O)c1ccncc1
- mutagenic call (Test System: AMES SALMONELLA TYPHIMURIUM, Strain/Indicator: G46, Metabolic Activation: HAMSTER, LIVER, HOMOGENATE (HEAT-INACTIVATED), Method: PREINCUBATION): inactive; negative
- mutagenic call (Test System: AMES SALMONELLA TYPHIMURIUM, Strain/Indicator: G46, Metabolic Activation: HAMSTER, LIVER, HOMOGENATE, Method: PREINCUBATION): active; positive
- mutagenic call (Test System: AMES SALMONELLA TYPHIMURIUM, Strain/Indicator: G46, Metabolic Activation: MOUSE, LIVER, HOMOGENATE, Method: PREINCUBATION): active; positive
- mutagenic call (Test System: AMES SALMONELLA TYPHIMURIUM, Strain/Indicator: G46, Metabolic Activation: NONE, Method: STANDARD PLATE): inactive; negative
- mutagenic call (Test System: AMES SALMONELLA TYPHIMURIUM, Strain/Indicator: G46, Metabolic Activation: RAT, LIVER, HOMOGENATE, Method: PREINCUBATION): active; positive
- mutagenic call (Test System: AMES SALMONELLA TYPHIMURIUM, Strain/Indicator: TA92, Metabolic Activation: NONE, Method: STANDARD PLATE): active; positive
- mutagenic call (Test System: AMES SALMONELLA TYPHIMURIUM, Strain/Indicator: TA100, Metabolic Activation: MOUSE, LIVER, S-9, Method: STANDARD PLATE): inactive; negative
- mutagenic call [3]: active; positive
- mutagenic call (Test System: AMES SALMONELLA TYPHIMURIUM, Strain/Indicator: TA102, Metabolic Activation: RAT, LIVER, S-9, AROCLOR 1254, Method: STANDARD PLATE): inactive; negative
- mutagenic call (Test System: AMES SALMONELLA TYPHIMURIUM, Strain/Indicator: TA1535, Metabolic Activation: HAMSTER, LIVER, HOMOGENATE (HEAT-INACTIVATED), Method: PREINCUBATION): inactive; negative
- mutagenic call (Test System: AMES SALMONELLA TYPHIMURIUM, Strain/Indicator: TA1535, Metabolic Activation: HAMSTER, LIVER, HOMOGENATE, Method: PREINCUBATION): active; positive
- mutagenic call (Test System: AMES SALMONELLA TYPHIMURIUM, Strain/Indicator: TA1535, Metabolic Activation: MOUSE, LIVER, HOMOGENATE, Method: PREINCUBATION): active; positive
- mutagenic call (Test System: AMES SALMONELLA TYPHIMURIUM, Strain/Indicator: TA1535, Metabolic Activation: MOUSE, LIVER, POSTMITOCHONDRIAL SUPERNATANT, Method: PREINCUBATION): inactive; negative
- mutagenic call (Test System: AMES SALMONELLA TYPHIMURIUM, Strain/Indicator: TA1535, Metabolic Activation: MOUSE, LIVER, S-9, Method: PREINCUBATION): inactive; negative
- mutagenic call (Test System: AMES SALMONELLA TYPHIMURIUM, Strain/Indicator: TA1535, Metabolic Activation: NONE, Method: STANDARD PLATE): active; positive
- mutagenic call (Test System: AMES SALMONELLA TYPHIMURIUM, Strain/Indicator: TA1535, Metabolic Activation: RAT, LIVER, HOMOGENATE, Method: PREINCUBATION): active; positive

Compound: Cc1c(N)nc([C@H](CC(N)=O)NC[C@H](N)C(N)=O)nc1C(=O)N[C@H](C(=O)N[C@H](C)[C@@H](O)[C@H](C)C(=O)N[C@H](C(=O)NCCc1nc(-c2nc(C(=O)NCCCN(C)CCCN(Cc3ccc(OCc4ccccc4)c(OCc4ccccc4)c3)Cc3ccc(OCc4ccccc4)c(OCc4ccccc4)c3)cs2)cs1)[C@@H](C)O)[C@@H](O[C@@H]1O[C@@H](CO)[C@@H](O)[C@H](O)[C@@H]1O[C@H]1O[C@H](CO)[C@@H](O)[C@H](OC(N)=O)[C@@H]1O)c1cnc[nH]1
- mutagenic call (Test System: AMES SALMONELLA TYPHIMURIUM, Strain/Indicator: TA94, Metabolic Activation: NONE, Method: PREINCUBATION): inactive; negative
- mutagenic call (Test System: AMES SALMONELLA TYPHIMURIUM, Strain/Indicator: TA102, Metabolic Activation: NONE, Method: PREINCUBATION): active; positive

Compound: CCC(C)(C)c1cc(-n2nc3ccccc3n2)c(O)c(C(C)(C)CC)c1
- mutagenic call (Test System: AMES SALMONELLA TYPHIMURIUM, Strain/Indicator: TA97, Metabolic Activation: NONE, Method: STANDARD PLATE): inactive; negative
- mutagenic call (Test System: AMES SALMONELLA TYPHIMURIUM, Strain/Indicator: TA97, Metabolic Activation: S-9, Method: STANDARD PLATE): inactive; negative
- mutagenic call [4]: inactive; negative
- mutagenic call [1]: inactive; negative
- mutagenic call [3]: inactive; negative
- mutagenic call [2]: inactive; negative
- mutagenic call (Test System: AMES SALMONELLA TYPHIMURIUM, Strain/Indicator: TA102, Metabolic Activation: NONE, Method: STANDARD PLATE): inactive; negative
- mutagenic call (Test System: AMES SALMONELLA TYPHIMURIUM, Strain/Indicator: TA102, Metabolic Activation: S-9, Method: STANDARD PLATE): inactive; negative
- mutagenic call (Test System: E.COLI, Strain/Indicator: WP2 (PKM101), Metabolic Activation: NONE, Method: STANDARD PLATE): inactive; negative
- mutagenic call (Test System: E.COLI, Strain/Indicator: WP2 (PKM101), Metabolic Activation: S-9, Method: STANDARD PLATE): inactive; negative

Compound: Cc1cc(O)c2c(c1)C(=O)c1c(c(O)cc(O)c1-c1c(O)cc(O)c3c1C(=O)c1cc(C)cc(O)c1C3=O)C2=O
- mutagenic call [4]: inactive; negative
- mutagenic call (Test System: AMES SALMONELLA TYPHIMURIUM, Strain/Indicator: TA98, Metabolic Activation: RAT, LIVER, S-9, AROCLOR 1254, Method: STANDARD PLATE): inactive; negative
- mutagenic call [3]: inactive; negative
- mutagenic call (Test System: AMES SALMONELLA TYPHIMURIUM, Strain/Indicator: TA100, Metabolic Activation: RAT, LIVER, S-9, AROCLOR 1254, Method: STANDARD PLATE): inactive; negative
- mutagenic call (Test System: AMES SALMONELLA TYPHIMURIUM, Strain/Indicator: TA1537, Metabolic Activation: NONE, Method: STANDARD PLATE): inactive; negative
- mutagenic call (Test System: AMES SALMONELLA TYPHIMURIUM, Strain/Indicator: TA1537, Metabolic Activation: RAT, LIVER, S-9, AROCLOR 1254, Method: STANDARD PLATE): inactive; negative
